For one series, the target named is T1, PSMA (Homo sapiens, UniProt Q04609).
T1 construct: host or cells: LNCaP prostate cancer cells
Also noted: method as in PMID 36168623. Particulars: LNCaP cells; cited from earlier work.

Series [1] has as its system LNCaP tumor-bearing mice. Put plainly: Ex vivo biodistribution in LNCaP tumor-bearing mice. Also noted: species or system mouse. Particulars: 1 h post-injection. An outline of the steps: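 Male NSG or NRG mice bearing subcutaneous LNCaP tumours (5-8 mm) were injected with 2-4 MBq radioligand, with 0.5 mg nonradioactive DCFPyL co-injected for blocking. At set time points, blood and organs were collected, weighed and gamma-counted.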

Series [2] deals with LNCaP tumor-bearing mice. The series can be described thus: PET/CT imaging in LNCaP tumor-bearing mice. Particulars: 1 h post-injection. Type of series: in vivo, mouse. As to the method: Imaging, biodistribution and radioligand therapy experiments were performed following previously published procedures using male NOD-scid IL2Rg^null (NSG) or NOD.Cg-Rag1^tm1MomIl2rg^tm1Wjl/SzJ (NRG) mice [10]-[12],[14]-[15]. The experiments were conducted according to the guidelines established by the Canadian Council on Animal Care and approved by Animal Ethics Committee of the University of British Columbia. The mice were briefly sedated by inhalation of 2% isoflurane in oxygen, and implanted subcutaneously with 1×10^7 LNCaP cells behind the left shoulder. The mice were imaged or used in biodistribution studies when the tumor grew to 5-8 mm in diameter over a period of 4-5 weeks.
PET/CT imaging experiments were conducted using a Siemens (Knoxville, TN, USA) Inveon micro PET/CT scanner. Each tumor-bearing mouse was injected with ~6-8 MBq of ^68Ga-labeled tracer through a lateral caudal tail vein. After 50 min post-injection, a 10-min CT scan was conducted first for localization and attenuation correction after segmentation for reconstructing the PET images, followed by a 10-min static PET imaging acquisition.

In a further series the test system is 22Rv1 tumor model. Also noted: method as in PMID 34453203. To be noted: 1 h post-injection, 22Rv1, BALB/c nude; cited from earlier work.
[3] abbreviates: blocked, co-injected with DCFPyL (0.5 mg).

Several values for one entry are separate records, joined by “and”; a condition that tells them apart may be missing. Equal entries are not always repeated.

T1 sequence (Q04609 whole entry): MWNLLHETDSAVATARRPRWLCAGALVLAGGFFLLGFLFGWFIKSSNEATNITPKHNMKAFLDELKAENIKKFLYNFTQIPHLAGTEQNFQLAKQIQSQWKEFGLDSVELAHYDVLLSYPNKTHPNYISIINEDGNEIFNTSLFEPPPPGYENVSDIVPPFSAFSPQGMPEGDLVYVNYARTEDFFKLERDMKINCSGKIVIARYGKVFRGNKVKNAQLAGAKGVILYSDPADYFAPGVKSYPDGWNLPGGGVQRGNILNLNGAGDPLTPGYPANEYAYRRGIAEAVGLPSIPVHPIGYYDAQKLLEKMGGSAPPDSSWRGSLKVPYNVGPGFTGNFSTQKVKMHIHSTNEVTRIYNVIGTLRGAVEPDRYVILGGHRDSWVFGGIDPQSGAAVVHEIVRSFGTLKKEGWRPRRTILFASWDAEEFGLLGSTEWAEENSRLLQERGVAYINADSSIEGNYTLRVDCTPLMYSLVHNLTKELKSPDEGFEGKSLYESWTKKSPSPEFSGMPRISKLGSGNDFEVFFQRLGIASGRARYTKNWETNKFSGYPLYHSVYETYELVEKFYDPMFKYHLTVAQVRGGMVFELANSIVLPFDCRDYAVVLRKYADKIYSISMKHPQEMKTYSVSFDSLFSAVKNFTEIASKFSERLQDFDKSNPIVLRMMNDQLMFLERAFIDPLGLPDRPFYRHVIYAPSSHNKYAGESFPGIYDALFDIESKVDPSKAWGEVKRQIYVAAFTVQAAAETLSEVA

As usually defined, the Ki is the equilibrium dissociation constant of an inhibitor or competing ligand from its target. For the molecule `O=C([O-])CN1CCN(CC(=O)[O-])CCN(CC(=O)NCC2CCC(C(=O)NC(Cc3c4ccccc4cc4ccccc34)C(=O)NCCCCC(NC(=O)NC(CCCC(=O)O)C(=O)O)C(=O)O)CC2)CCN(CC(=O)[O-])CC1.[Ga+3]` (stereo not shown) [Ga-HTK03149], the inhibitory constant (Ki) on PSMA was 6.99 ± 0.8 nM.
`O=C([O-])CN1CCN(CC(=O)[O-])CCN(CC(=O)NCC2CCC(C(=O)NC(Cc3c4ccccc4cc4ccccc34)C(=O)NCCCCC(NC(=O)NC(COCC(=O)O)C(=O)O)C(=O)O)CC2)CCN(CC(=O)[O-])CC1.[68Ga+3]` (stereo not shown) [[^68Ga]Ga-HTK03187]: in the series with LNCaP tumor-bearing mice [1], the Adrenal glands uptake amounted to 0.26 ± 0.06 %ID/g, the Blood uptake was determined as 0.67 ± 0.10 %ID/g, the “Blood:Salivary gland uptake ratio” value was found to be 4.27 ± 0.74 and the Bone uptake is given as 0.13 ± 0.03 %ID/g. In the series with LNCaP tumor-bearing mice [1], this molecule had a Brain uptake of 0.02 ± 0.00 %ID/g, a Fat uptake of 0.07 ± 0.02 %ID/g, a Heart uptake of 0.19 ± 0.04 %ID/g and an Intestines uptake of 0.23 ± 0.05 %ID/g. In the series with LNCaP tumor-bearing mice [1], the Lacrimal glands uptake is 0.09 ± 0.03 %ID/g, the Liver uptake worked out at 0.21 ± 0.05 %ID/g, the Lungs uptake is reported as 0.52 ± 0.09 %ID/g and the Muscle uptake is 0.09 ± 0.01 %ID/g. For the same molecule, in the series on LNCaP tumor-bearing mice [1], the Pancreas uptake stood at 0.12 ± 0.02 %ID/g; the Salivary glands uptake was 0.16±0.02 %ID/g and < 0.25 %ID/g; the Spleen uptake came out at 0.17 ± 0.02 %ID/g; the Stomach uptake turned out to be 0.08 ± 0.05 %ID/g. In the series with LNCaP tumor-bearing mice [1], the Testes uptake is given as 0.15 ± 0.03 %ID/g; the Thyroid uptake amounted to 0.18 ± 0.02 %ID/g; the Tumor uptake is 21.1±3.62 %ID/g and 21-25 %ID/g; the “Tumor:Blood uptake ratio” value stood at 32.2±8.53. In the series on LNCaP tumor-bearing mice [1], the “Tumor:Kidney uptake ratio” value is 7.67±2.10, the “Tumor:Muscle uptake ratio” value is given as 249±61.2 and the “Tumor:Salivary gland uptake ratio” value is 133±14.0. Besides, in the series on LNCaP tumor-bearing mice [1] (setting [3]), the Adrenal glands uptake is 0.13 ± 0.06 %ID/g, the Blood uptake is 0.33 ± 0.16 %ID/g, the “Blood:Salivary gland uptake ratio” value came to 3.64 ± 0.44 and the Bone uptake was found to be 0.06 ± 0.02 %ID/g. In the series with LNCaP tumor-bearing mice [1] (setting [3]), this molecule yielded a Brain uptake of 0.01 ± 0.00 %ID/g, a Fat uptake of 0.06 ± 0.04 %ID/g, a Heart uptake of 0.10 ± 0.05 %ID/g and an Intestines uptake of 0.13 ± 0.03 %ID/g. In the series on LNCaP tumor-bearing mice [1] (setting [3]), this molecule yielded a Kidneys uptake of 1.15 ± 0.37 %ID/g, a Lacrimal glands uptake of 0.06 ± 0.03 %ID/g, a Liver uptake of 0.16 ± 0.05 %ID/g and a Lungs uptake of 0.31 ± 0.10 %ID/g. Besides, in the series on LNCaP tumor-bearing mice [1] (setting [3]), the Muscle uptake was 0.08 ± 0.06 %ID/g, the Pancreas uptake came to 0.07 ± 0.02 %ID/g, the Salivary glands uptake was found to be 0.09 ± 0.04 %ID/g and the Spleen uptake is on record as 0.12 ± 0.03 %ID/g. In the series on LNCaP tumor-bearing mice [1] (setting [3]), this molecule had a Stomach uptake of 0.03 ± 0.01 %ID/g, a Testes uptake of 0.15 ± 0.01 %ID/g, a Thyroid uptake of 0.12 ± 0.05 %ID/g and a Tumor uptake of 0.35 ± 0.09 %ID/g. Further, in the series on LNCaP tumor-bearing mice [1] (setting [3]), the “Tumor:Blood uptake ratio” value stood at 1.14 ± 0.25, the “Tumor:Kidney uptake ratio” value stood at 0.31 ± 0.08, the “Tumor:Muscle uptake ratio” value amounted to 5.34 ± 2.25 and the “Tumor:Salivary gland uptake ratio” value worked out at 4.13 ± 0.92. The Tumor uptake in the series with LNCaP tumor-bearing mice [1] (listed as [^68Ga]HTK03187) is recorded as ~ 20 %ID/g. In the series with LNCaP tumor-bearing mice [1] (DCFPyL 0.5 mg), the “Reduction of average kidney uptake by co-injection of DCFPyL” value is listed as 59%. For the same molecule, in the series with LNCaP tumor-bearing mice [2], the “Kidney uptake in PET images” value is “relatively lower”.
As for `O=C([O-])CN1CCN(CC(=O)[O-])CCN(CC(=O)NCC2CCC(C(=O)NC(Cc3ccc4ccccc4c3)C(=O)NCCCCC(NC(=O)NC(CCC(=O)O)C(=O)O)C(=O)O)CC2)CCN(CC(=O)[O-])CC1.[68Ga+3]` (stereo not shown) [[^68Ga]Ga-PSMA-617], the Tumor uptake with 22Rv1 tumor model is given as 3.41±1.31 %ID/g.

The values above are taken from PMC10465233, “Lys-urea-Aad, Lys-urea-Cmc and Lys-urea-Cms as potential pharmacophores for the design of PSMA-targeted radioligands to reduce off-target uptake in kidneys and salivary glands” (Theranostics, 2023).
